# Measurements taken from patent US20020151707A1, “Immune mediators and related methods” (Corixa Corp., priority 1995, published 2002).
# How the values were obtained:
# [1] = tested on: C-terminal amidated GAD65+I-A^g7 restricted T cell hybridomas (MBD.1, MBD2.3, MBD2.7, MBD2.8, MBD2.11, MBD2.14); experiment: Activation of GAD65 restricted T-cell hybridomas, read as CTLL proliferation in response to IL-2; type: cell-based, NOD mouse; settings: hybridoma MBD.1; peptide + I-A^g7 of NOD APCs; CTLL cells
# Method: To determine specificity of the T-cell hybridomas, antigen-presenting cells (APCs) were prepared by grinding NOD mice spleens and lysing as in Example 11. The splenocytes were brought to 3 ml in Bruff's medium containing 10% FBS. Mitomycin C (Sigma) was added at 0.3 ml per 3 ml of cell suspension to prevent DNA synthesis. The APCs were incubated for 30 minutes in a 37° C. water bath, and then washed 3 times in Bruff's medium containing 10% FBS, each time centrifuging for 5 minutes at 1200 RPM. After the final wash, the APCs were brought to a concentration of 2×10^6 cells/ml in Bruff's medium containing 10% FBS. C-terminal amidated GAD65 peptide was titered from 333 μg/ml to 0.15 μg/ml in round bottom 96 well plates. Fifty microliters (1×10^5) APCs were added to the peptides. Hybridomas were counted and brought to a concentration of 1×10^6 cells/ml in Bruff's medium containing 10% FBS, and 100 μl (1×10^5) cells was added to each well. Hybridomas were also tested against the following: I-A^g7 MHC +a peptide other than C-terminal amidated GAD65; an MHC other than I-A^g7+C-terminal amidated GAD65; the I-A^g7 MHC alone; and C-terminal amidated GAD65 alone. The plate was incubated at 37° C., 5% CO2, overnight. […] Incorporation of ^3H-thymidine into the DNA was measured on a Wallac 1205 Betaplate Beta Counter (Turku, Finland). […]
# NOD recipient mice = experiment: Adoptive transfer of IDDM with splenocytes from diabetic NOD mice; type: in vivo, NOD mouse
# From the text: IDDM can also be adoptively transferred by transplanting splenic cells from a diabetic-donor to a non-diabetic recipient (Baron et al., J. Clin. Invest. 93:1700-08, 1994). This method involves treating in vivo activated mature T cells. Briefly, NOD/CaJ mice are irradiated (730 rad) and randomly divided into treatment groups. Splenocytes, preferably about 1.5×10^7, from newly diabetic mice are isolated and injected intravenously into non-diabetic NOD 7-8 week old recipient mice, followed six hours later with intravenous injections of saline, peptide or MHC:peptide complex at 10, 5, or 1 μg/mouse. The injections are repeated on days 4, 8 and 12 following the original injection. Mice are tested for the onset of diabetes by urine analysis, and at the time of sacrifice, blood glucose. Treatment of these mice with an MHC:peptide complex is expected to lengthen the time period before the onset of diabetes and/or to prevent or ameliorate the disease. […]
# IDDM can be adoptively transferred by injecting splenic cells from a diabetic donor into a non-diabetic recipient. […] Those animals showing positive urine values of at least 250 mg/dl glucose were further analyzed for blood glucose levels using tail clippings, and if the blood glucose was also at or above 250 mg/dl, the mice were classified as overtly diabetic. […]
# [2] = tested on: T cell lines derived from one HLA-DRB1*0404 patient (ThHo); experiment: Reactivity of GAD-reactive human T cell lines to synthetic GAD peptides (3H-thymidine proliferation); type: cell-based; settings: for number of T cell lines stimulated: of 4 T cell lines
# Method: T-cell clones were rested (not given IL-2 for 2 days, at least 7 days post-stimulation with antigen), washed, counted and resuspended in 15% PHS medium. They were plated at 25,000 cells/well in […] 15% PHS medium. Autologous or HLA-class II-matched PBMNCs are loaded with GAD by incubating with GAD (about […]) for at least 5 hours. The cells are washed and irradiated with 3000 rads. These cells are washed and resuspended in 15% PHS medium, and added to the T-cells at a concentration of 1×10^6 cells/well in […] 15% PHS medium. The cells were incubated for 48 hours, then pulsed with […] 3H-thymidine and harvested. A positive response is considered to be a stimulation index >3 (stimulation index SI=average cpm of sample stimulated with antigen/average cpm of sample of cells stimulated with no antigen or control antigen). Some controls include T-cells alone, stimulators alone, a purified negative antigen, GAD purified from baculovirus, PHA, and IL-2.
# Other methods, well known in the art, for testing clones and lines include dose response to antigen; response to these antigens or negative antigen controls; determination of HLA-class II restriction by adding blocking anti-HLA class II antibody to plates; and use of peptides to load stimulators to determine peptide specificity, which can be done as described above except the peptides are tested by dose titration and left in the assay. A dose response in combination with peptide specificity tests can also be done.
# Four individual T cell lines derived from one HLA-DRB1*0404 patient (ThHo) were used to map the 74 synthetic GAD peptides, overlapping sets of 20 mers, that span the entire length of GAD 65 (SEQ. ID. NO. 59). Antigen presenting cells, BLS-DRB1*0404 and/or BLS-DRB1*0401 (Kovats et al., J. Exp. Med. 179:2017-22, 1994), were loaded with peptide by incubating with peptide (about […]) for at least 5 hours. Reactivity of T-cells was determined as above. One peptide, hGAD 33 ([…] SEQ. ID. NO. 40) stimulated 3 or the 4 lines with BLS-B1*0404. […]
# NOD MHC Class II I-A^g7 = settings: known from the literature (Reich et al.); cited from earlier work
substance,measurement,setting,value
SRLSKVAPVIKARMMEYGTT-NH2 [C-terminal amidated GAD65 peptide],"proliferative response, incorporated 3H-thymidine",[1],> 5000 cpm
same,mice that had developed disease by day 30,NOD recipient mice; 10 μg/mouse peptide alone,over 75%
same,overall effect on onset of diabetes in the adoptive transfer model,"NOD recipient mice; mouse, in vivo",accelerated the onset of diabetes
PGGAISNMYAM [ID; NO; 39],number of T cell lines stimulated,[2]; presented by either BLS-B1*0404 or BLS-DRB1*0401,one
"MSA: Mouse serum albumin (MSA), a known allele-specific peptide (SEQ. ID. NO. 61), positive control",affinity for I-A^g7 (control peptides),NOD MHC Class II I-A^g7,high affinity
SRLSKVAPVIKARMMEYGTT [same GAD65 peptide (aa 524-543) with a carboxylic group at the C-terminus],proliferative response (lesser response),[1],> 2000 CMP
PGGAISNMYA [ID; NO; 41],"stimulation of T-cell line, HLA restriction",[2]; APC BLS-B1*0404 versus BLS-DRB1*0401,stimulated the same T-cell line only when presented by BLS-B1*0404
"PGGAISNMYAMMIARFKMFP (PGGAISNMYAMMIARFKNFP) [hGAD 33, ID; NO; 40]",number of T cell lines stimulated,[2]; peptide presented by BLS-B1*0404,3
